# Measured values from patent US20170190671A1, “BIS(ARYL)CATECHOL DERIVATIVES AS HERBICIDES” (E I DU PONT DE NEMOURS AND COMPANY, priority 2014, published 2017).
# Assays:
# Type in all cases: in vivo
# [1] = test system: Italian ryegrass (Lolium multiflorum); assay: Test A postemergence; conditions: 0 to 100 scale
# Text: (§1) Seeds of plant species selected from barnyardgrass (Echinochloa crus-galli), kochia (Kochia scoparia), ragweed (common ragweed, Ambrosia elatior), Italian ryegrass (Lolium multiflorum), large (Lg) crabgrass (Digitaria sanguinalis), giant foxtail (Setaria faberii), morningglory (Ipomoea spp.), pigweed (Amaranthus retroflexus), velvetleaf (Abutilon theophrasti), wheat (Triticum aestivum), and corn (Zea mays) were planted into a blend of loam soil and sand and treated preemergence with a directed soil spray using test chemicals formulated in a non-phytotoxic solvent mixture which included a surfactant.
# (§2) At the same time, plants selected from these crop and weed species and also blackgrass (Alopecurus myosuroides), and galium (catchweed bedstraw, Galium aparine) were planted in pots containing the same blend of loam soil and sand and treated with postemergence applications of test chemicals formulated in the same manner. Plants ranged in height from 2 to 10 cm and were in the one- to two-leaf stage for the postemergence treatment. Treated plants and untreated controls were maintained in a greenhouse for approximately 10 days, after which time all treated plants were compared to untreated controls and visually evaluated for injury. Plant response ratings, summarized in Table A, are based on a 0 to 100 scale where 0 is no effect and 100 is complete control. A dash (-) response means no test result.
# [2] = test system: barnyardgrass (Echinochloa crus-galli); assay: Test A postemergence; conditions: 0 to 100 scale
# Text: as §1, §2
# kochia (Kochia scoparia) [3] = assay: Test A postemergence; conditions: 0 to 100 scale
# Text: as §1, §2
# [4] = test system: ragweed (common ragweed, Ambrosia elatior); assay: Test A postemergence; conditions: 0 to 100 scale
# Text: as §1, §2
# [5] = test system: giant foxtail (Setaria faberii); assay: Test A postemergence; conditions: 0 to 100 scale
# Text: as §1, §2
# [6] = test system: galium (catchweed bedstraw, Galium aparine); assay: Test A postemergence; conditions: 0 to 100 scale
# Text: as §1, §2
# [7] = test system: blackgrass (Alopecurus myosuroides); assay: Test A postemergence; conditions: 0 to 100 scale
# Text: as §1, §2
# [8] = test system: wheat (Triticum aestivum); assay: Test A postemergence; conditions: 0 to 100 scale
# Text: as §1, §2
# corn (Zea mays) = assay: Test A postemergence; conditions: 0 to 100 scale
# Text: as §1, §2
# [9] = test system: pigweed (Amaranthus retroflexus); assay: Test A postemergence; conditions: 0 to 100 scale
# Text: as §1, §2
# [10] = test system: Italian ryegrass (Lolium multiflorum); assay: Test A preemergence
# Text: as §1, §2
# [11] = test system: barnyardgrass (Echinochloa crus-galli); assay: Test A preemergence
# Text: as §1, §2
# kochia (Kochia scoparia) [12] = assay: Test A preemergence
# Text: as §1, §2
# [13] = test system: ragweed (common ragweed, Ambrosia elatior); assay: Test A preemergence
# Text: as §1, §2
# [14] = test system: giant foxtail (Setaria faberii); assay: Test A preemergence
# Text: as §1, §2
# [15] = test system: pigweed (Amaranthus retroflexus); assay: Test A preemergence
# Text: as §1, §2
# [16] = 31 g ai/ha, 0 to 100 scale (0 no effect, 100 complete control)
smiles,measurement,setting,value
FC(F)(F)c1cnc(Oc2c(Br)cccc2Oc2ncc(Cl)cn2)s1 [Compound 6],"Plant response rating, Ryegrass, Italian",[1]; 31 g ai/ha,0
same,"Plant response rating, Ryegrass, Italian",[1]; 125 g ai/ha,50
same,"Plant response rating, Barnyardgrass",[2]; 31 g ai/ha,10
same,"Plant response rating, Barnyardgrass",[2]; 125 g ai/ha,100
same,"Plant response rating, Kochia",kochia (Kochia scoparia) [3]; 31 g ai/ha,70
same,"Plant response rating, Kochia",kochia (Kochia scoparia) [3]; 125 g ai/ha,100
same,"Plant response rating, Ragweed",[4]; 31 g ai/ha,0
same,"Plant response rating, Ragweed",[4]; 125 g ai/ha,20
same,"Plant response rating, Foxtail, Giant",[5]; 31 g ai/ha,10
same,"Plant response rating, Foxtail, Giant",[5]; 125 g ai/ha,60
same,"Plant response rating, Galium",[6]; 31 g ai/ha,70
same,"Plant response rating, Galium",[6]; 125 g ai/ha,100
same,"Plant response rating, Blackgrass",[7]; 31 g ai/ha,10
same,"Plant response rating, Blackgrass",[7]; 125 g ai/ha,40
same,"Plant response rating, Wheat",[8]; 31 g ai/ha,0
same,"Plant response rating, Wheat",[8]; 125 g ai/ha,10
same,"Plant response rating, Corn",corn (Zea mays); 31 g ai/ha,0
same,"Plant response rating, Corn",corn (Zea mays); 125 g ai/ha,10
same,"Plant response rating, Pigweed",[9]; 31 g ai/ha,50
same,"Plant response rating, Pigweed",[9]; 125 g ai/ha,90
same,"Ryegrass, Italian plant response rating",[10]; [16],0
same,"Plant response rating, Ryegrass, Italian","[10]; 125 g ai/ha, 0 to 100 scale",20
same,Barnyardgrass plant response rating,[11]; [16],20
same,"Plant response rating, Barnyardgrass","[11]; 125 g ai/ha, 0 to 100 scale",70
same,Kochia plant response rating,kochia (Kochia scoparia) [12]; [16],30
same,"Plant response rating, Kochia","kochia (Kochia scoparia) [12]; 125 g ai/ha, 0 to 100 scale",80
same,Ragweed plant response rating,[13]; [16],0
same,"Plant response rating, Ragweed","[13]; 125 g ai/ha, 0 to 100 scale",0
same,"Foxtail, Giant plant response rating",[14]; [16],60
same,"Plant response rating, Foxtail, Giant","[14]; 125 g ai/ha, 0 to 100 scale",100
same,Pigweed plant response rating,[15]; [16],30
same,"Plant response rating, Pigweed","[15]; 125 g ai/ha, 0 to 100 scale",90
